Values belong to the compound of their own block, whether it stands above or below them.
Biological target: T1, BCL6 (Homo sapiens, UniProt P41182)
T1 construct: HiBiT-tag knocked into endogenous BCL6 locus using CRISPR; endogenous in cells; host or cells: DHL-4_BCL6_HiBiT cells (CRISPR knock-in)
Assay: BCL6_HiBiT degradation assay (2 h)
Assay type: cell-based
Details: DHL-4_BCL6_HiBiT cells, read-out: YCon (% remaining maximal effect)
Procedure: A DHL-4 cell line with HiBiT-tag knocked into endogenous BCL6 locus using CRISPR was generated. The DHL-4_BCL6_HiBiT cells were dispensed into 384-well plates (Corning no. 3570) that were pre-spotted with compounds. Compounds were dispensed by an acoustic dispenser (ATS acoustic transfer system from EDC Biosystems) into a 384-well plate in a 10-point dose response curve using 3-fold dilutions starting at 1-10 μM and going down to […]. 25 μL of media (RPMI-1640+10% heat inactivated FBS+1×Pen/Strep) containing 2500 of DHL-4 was dispensed per well. Assay plates were incubated at 37° C. with 5% CO2 for 2 hours. After incubation, 25 μL of the Nano-Glo HiBiT lytic detection working solution (Promega, catalogue no. N3040, Madison, WI) was added to each well and incubated at room temperature for 15-30 min, protected from light. After 30 min, luminescence was read on an Envision or PHERAstar luminescence reader. To determine the EC50 value (the half-maximum effective concentration) and the level of the gradation (Yconstant) of a BCL6 degrader, luminescent signal normalized by DMSO control (Y) and compound concentration (x) was fitted using a four-parameter dose-response model (Y=(A+((B−A)/1+((C/x)^D) in Dotmatics. Fitted value C is the degradation EC50 and the minimum value A is the Y constant.
The degradation of BCL6 at 2 h in DHL-4 results are shown in Table 5, where EC50 is the half maximal effect and Ycon is the % remaining maximal effect.

Compound: C[C@@H]1CN(c2ncc(Cl)c(Nc3ccc4c(c3)CC(=O)N4C)n2)C[C@H](C)N1c1ccc2c(C3CCC(=O)NC3=O)nn(C)c2c1 (stereo partly drawn) [Example 26, 3-(6-((2S,6R)-4-(5-chloro-4-((1-methyl-2-oxoindolin-5-yl)amino)pyrimidin-2-yl)-2,6-dimethylpiperazin-1-yl)-1-methyl-1H-indazol-3-yl)piperidine-2,6-dione]
Percent BCL6 remaining at maximal degradation (Ycon): > 60%

Compound: C[C@@H]1CN(c2ccc3c(C4CCC(=O)NC4=O)nn(C)c3c2)C[C@@H](C)N1c1ncc(Cl)c(Nc2ccc3c(c2)CC(=O)N3C)n1 (stereo partly drawn) [Example 28, 3-(6-((3R,5R)-4-(5-chloro-4-((1-methyl-2-oxoindolin-5-yl)amino)pyrimidin-2-yl)-3,5-dimethylpiperazin-1-yl)-1-methyl-1H-indazol-3-yl)piperidine-2,6-dione]
Percent BCL6 remaining at maximal degradation (Ycon): > 60%

Compound: C[C@H]1CN(c2ccc3c(C4CCC(=O)NC4=O)nn(C)c3c2)C[C@H](C)N1c1ncc(Cl)c(Nc2ccc3c(c2)CC(=O)N3C)n1 (stereo partly drawn) [Example 29, 3-(6-((3S,5S)-4-(5-chloro-4-((1-methyl-2-oxoindolin-5-yl)amino)pyrimidin-2-yl)-3,5-dimethylpiperazin-1-yl)-1-methyl-1H-indazol-3-yl)piperidine-2,6-dione]
Percent BCL6 remaining at maximal degradation (Ycon): < 20%

Compound: C[C@@H]1CN(c2ccc3c(C4CCC(=O)NC4=O)nn(C)c3c2)C[C@H](C)N1c1ncc(Cl)c(Nc2ccc3c(c2)CC(=O)N3C)n1 (stereo partly drawn) [Example 30, 3-(6-((3R,5S)-4-(5-chloro-4-((1-methyl-2-oxoindolin-5-yl)amino)pyrimidin-2-yl)-3,5-dimethylpiperazin-1-yl)-1-methyl-1H-indazol-3-yl)piperidine-2,6-dione]
Percent BCL6 remaining at maximal degradation (Ycon): > 60%

Compound: CN1C(=O)Cc2cc(Nc3nc(N4CCCN(c5ccc6c(C7CCC(=O)NC7=O)nn(C)c6c5)CC4)ncc3Cl)ccc21 (stereo not drawn) [Example 32, 3-(6-(4-(5-chloro-4-((1-methyl-2-oxoindolin-5-yl)amino)pyrimidin-2-yl)-1,4-diazepan-1-yl)-1-methyl-1H-indazol-3-yl)piperidine-2,6-dione]
Percent BCL6 remaining at maximal degradation (Ycon): > 60%

Compound: Cn1nc(C2CCC(=O)NC2=O)c2ccc(N3CCN(c4ncc(Cl)c(Nc5ccc6c(c5)CC(=O)N6)n4)CC3)cc21 (stereo not drawn) [Example 34, 3-(6-(4-(5-chloro-4-((2-oxoindolin-5-yl)amino)pyrimidin-2-yl)piperazin-1-yl)-1-methyl-1H-indazol-3-yl)piperidine-2,6-dione]
Percent BCL6 remaining at maximal degradation (Ycon): > 60%

Compound: CN1C(=O)Cc2cc(Nc3nc(N4CCN(c5ccc6c(C7CCC(=O)NC7=O)nn(C)c6c5)CC4)ncc3Cl)ccc21 (stereo not drawn) [Example 35, 3-[6-[4-[5-chloro-4-[(1-methyl-2-oxo-indolin-5-yl)amino]pyrimidin-2-yl]piperazin-1-yl]-1-methyl-indazol-3-yl]piperidine-2,6-dione]
Percent BCL6 remaining at maximal degradation (Ycon): > 60%

Compound: CN1C(=O)Cc2cc(Nc3nc(N4CCN(c5ccc6c(C7CCC(=O)NC7=O)nn(C)c6c5)C(=O)C4)ncc3Cl)ccc21 (stereo not drawn) [Example 37, 3-(6-(4-(5-chloro-4-((1-methyl-2-oxoindolin-5-yl)amino)pyrimidin-2-yl)-2-oxopiperazin-1-yl)-1-methyl-1H-indazol-3-yl)piperidine-2,6-dione]
Percent BCL6 remaining at maximal degradation (Ycon): > 60%

Compound: CC1C(=O)N(c2ccc3c(C4CCC(=O)NC4=O)nn(C)c3c2)CCN1c1ncc(Cl)c(Nc2ccc3c(c2)CC(=O)N3C)n1 (stereo not drawn) [Example 38, 3-(6-(4-(5-chloro-4-((1-methyl-2-oxoindolin-5-yl)amino)pyrimidin-2-yl)-3-methyl-2-oxopiperazin-1-yl)-1-methyl-1H-indazol-3-yl)piperidine-2,6-dione]
Percent BCL6 remaining at maximal degradation (Ycon): > 60%

Compound: CN1C(=O)Cc2cc(Nc3nc(NC4CCN(c5ccc6c(C7CCC(=O)NC7=O)nn(C)c6c5)CC4)ncc3Cl)ccc21 (stereo not drawn) [Example 40, 3-(6-(4-((5-Chloro-4-((1-methyl-2-oxoindolin-5-yl)amino)pyrimidin-2-yl)amino)piperidin-1-yl)-1-methyl-1H-indazol-3-yl)piperidine-2,6-dione]
Percent BCL6 remaining at maximal degradation (Ycon): > 60%

Continued, values first:

Percent BCL6 remaining at maximal degradation (Ycon): 20 to 60%
Compound: C[C@H]1C[C@@H](Nc2ccc3c(C4CCC(=O)NC4=O)nn(C)c3c2)CCN1c1ncc(Cl)c(Nc2ccc3c(c2)CC(=O)N3C)n1 (stereo partly drawn) [Example 19, 3-(6-(((2S,4S)-1-(5-chloro-4-((1-methyl-2-oxoindolin-5-yl)amino)pyrimidin-2-yl)-2-methylpiperidin-4-yl)amino)-1-methyl-1H-indazol-3-yl)piperidine-2,6-dione]

Percent BCL6 remaining at maximal degradation (Ycon): 20 to 60%
Compound: C[C@H]1C[C@@H](N(C)c2ncc(Cl)c(Nc3ccc4c(c3)CC(=O)N4C)n2)CCN1c1ccc2c(C3CCC(=O)NC3=O)nn(C)c2c1 (stereo partly drawn) [Example 20, 3-(6-((2S,4S)-4-((5-chloro-4-((1-methyl-2-oxoindolin-5-yl)amino)pyrimidin-2-yl)(methyl)amino)-2-methylpiperidin-1-yl)-1-methyl-1H-indazol-3-yl)piperidine-2,6-dione]

Percent BCL6 remaining at maximal degradation (Ycon): > 60%
Compound: C[C@@H]1C[C@H](N(C)c2ccc3c(C4CCC(=O)NC4=O)nn(C)c3c2)CCN1c1ncc(Cl)c(Nc2ccc3c(c2)CC(=O)N3C)n1 (stereo partly drawn) [Example 21, 3-(6-(((2R,4R)-1-(5-chloro-4-((1-methyl-2-oxoindolin-5-yl)amino)pyrimidin-2-yl)-2-methylpiperidin-4-yl)(methyl)amino)-1-methyl-1H-indazol-3-yl)piperidine-2,6-dione]

Percent BCL6 remaining at maximal degradation (Ycon): > 60%
Compound: C[C@@H]1C[C@H](Nc2ccc3c(C4CCC(=O)NC4=O)nn(C)c3c2)CCN1c1ncc(Cl)c(Nc2ccc3c(c2)CC(=O)N3C)n1 (stereo partly drawn) [Example 22, 3-(6-(((2R,4R)-1-(5-chloro-4-((1-methyl-2-oxoindolin-5-yl)amino)pyrimidin-2-yl)-2-methylpiperidin-4-yl)amino)-1-methyl-1H-indazol-3-yl)piperidine-2,6-dione]

Percent BCL6 remaining at maximal degradation (Ycon): > 60%
Compound: C[C@@H]1C[C@@H](Nc2ccc3c(C4CCC(=O)NC4=O)nn(C)c3c2)CCN1c1ncc(Cl)c(Nc2ccc3c(c2)CC(=O)N3C)n1 (stereo partly drawn) [Example 23, 3-(6-(((2R,4S)-1-(5-chloro-4-((1-methyl-2-oxoindolin-5-yl)amino)pyrimidin-2-yl)-2-methylpiperidin-4-yl)amino)-1-methyl-1H-indazol-3-yl)piperidine-2,6-dione]

Percent BCL6 remaining at maximal degradation (Ycon): > 60%
Compound: C[C@H]1C[C@@H](N(C)c2ccc3c(C4CCC(=O)NC4=O)nn(C)c3c2)CCN1c1ncc(Cl)c(Nc2ccc3c(c2)CC(=O)N3C)n1 (stereo partly drawn) [Example 24, 3-(6-(((2S,4S)-1-(5-chloro-4-((1-methyl-2-oxoindolin-5-yl)amino)pyrimidin-2-yl)-2-methylpiperidin-4-yl)(methyl)amino)-1-methyl-1H-indazol-3-yl)piperidine-2,6-dione]

Percent BCL6 remaining at maximal degradation (Ycon): > 60%
Compound: C[C@@H]1C[C@@H](N(C)c2ccc3c(C4CCC(=O)NC4=O)nn(C)c3c2)CCN1c1ncc(Cl)c(Nc2ccc3c(c2)CC(=O)N3C)n1 (stereo partly drawn) [Example 25, 3-(6-(((2R,4S)-1-(5-chloro-4-((1-methyl-2-oxoindolin-5-yl)amino)pyrimidin-2-yl)-2-methylpiperidin-4-yl)(methyl)amino)-1-methyl-1H-indazol-3-yl)piperidine-2,6-dione]

Percent BCL6 remaining at maximal degradation (Ycon): > 60%
Compound: CN1C(=O)Cc2cc(Nc3nc(N4CCCC(Nc5ccc6c(C7CCC(=O)NC7=O)nn(C)c6c5)CC4)ncc3Cl)ccc21 (stereo not drawn) [Example 31, 3-(6-((1-(5-chloro-4-((1-methyl-2-oxoindolin-5-yl)amino)pyrimidin-2-yl)azepan-4-yl)amino)-1-methyl-1H-indazol-3-yl)piperidine-2,6-dione]

Percent BCL6 remaining at maximal degradation (Ycon): < 20%
Compound: CN1C(=O)Cc2cc(Nc3nc(N4CC[C@@H](Nc5ccc6c(C7CCC(=O)NC7=O)nn(C)c6c5)[C@H](O)C4)ncc3Cl)ccc21 (stereo partly drawn) [Example 33, 3-(6-(((3R,4R)-1-(5-chloro-4-((1-methyl-2-oxoindolin-5-yl)amino)pyrimidin-2-yl)-3-hydroxypiperidin-4-yl)amino)-1-methyl-1H-indazol-3-yl)piperidine-2,6-dione]

Percent BCL6 remaining at maximal degradation (Ycon): > 60%
Compound: CN1C(=O)Cc2cc(Nc3nc(N4CCC(Nc5ccc6c(C7CCC(=O)NC7=O)nn(C)c6c5)CC4)ncc3C#N)ccc21 (stereo not drawn) [Example 36, 2-(4-((3-(2,6-dioxopiperidin-3-yl)-1-methyl-1H-indazol-6-yl)amino)piperidin-1-yl)-4-((1-methyl-2-oxoindolin-5-yl)amino)pyrimidine-5-carbonitrile]

Percent BCL6 remaining at maximal degradation (Ycon): > 60%
Compound: CC1CN(c2ccc3c(C4CCC(=O)NC4=O)nn(C)c3c2)C(=O)CN1c1ncc(Cl)c(Nc2ccc3c(c2)CC(=O)N3C)n1 (stereo not drawn) [Example 39, 3-(6-(4-(5-chloro-4-((1-methyl-2-oxoindolin-5-yl)amino)pyrimidin-2-yl)-5-methyl-2-oxopiperazin-1-yl)-1-methyl-1H-indazol-3-yl)piperidine-2,6-dione]

From US12404239B2, “Modulators of BCL6 as ligand directed degraders” (Celgene Corporation, priority 2022, dated 2025)
